Experimental data as given in patent US20250092058A1 (priority 2018, published 2025).
Read-outs that look alike come from different tables or passages of the source.

Experiments:
[1] = system: HT-3; assay: MTT assay HT-3; format: cell-based, human; conditions: Table 5 lower part
Experimental: (§1) MTT assays. […] Viable cells (2500 cells per well) were plated in each well in 96-well plates. After an overnight incubation, cells were treated with and without relevant drugs alone and in combination, respectively, at various concentrations and incubated for 72 hours. MTT, a colorimetric substrate, was added to a final concentration of 0.4 mg/ml to each well. Cells in 96-well plates were further incubated in a 5% CO2 incubator at 37° C. for 4 hours, and then the medium was aspirated. The MTT metabolic product formazan was solubilized by adding 200 ul of DMSO to each well. Absorbance in the relevant wells was measured at 570 nm using an Ultra Microplate Reader (Bio-Tek Instruments). Each experiment was performed at least in triplicate. IC50/EC50 values were calculated from a series of drug dose ranges for each analyzed compound, using GraphPad Prism 6 (GraphPad Software, Inc., La Jolla, CA).
(§2) The inhibition of cell growth and viability in various cancer cell types were tested using MTT assay for references.

[2] = system: H1376
Experimental: as §1, §2

[3] = system: UMUC-3
Experimental: as §1, §2

[4] = system: RT4; assay: MTT assay RT4; format: cell-based; conditions: Table 5 lower part; RT4 bladder cancer
Experimental: as §1, §2

[5] = system: T24; assay: MTT assay T24; format: cell-based; conditions: Table 5 lower part; T24 bladder cancer
Experimental: as §1, §2

[6] = system: PDX14244 and PDX27454; assay: Pancreatic PDX14244 (left flank) and colorectal PDX27454 (right flank) in the same SCID mice; format: in vivo; conditions: oral weekly for 4 times
Experimental: Human xenograft tumors used.
The vehicle is the same aqueous suspension without FL7N-1. Experimental SCID mice were subcutaneously implanted with 30-40 mg individual PDX tumors (isolated from maintenance mice) at the flank area (left side for PDX14244, and right side for PDX27454) of SCID mice. […] The animal model of PDX tumors was orally treated weekly for 3 times as shown with black arrows. […] Thus, FL7N-1 may be a priority candidate to be developed for treatment of children rare disease retinoblastoma.
(§3) The vehicle is the same think aqueous suspension without drug. Experimental SCID mice were subcutaneously implanted with 30-40 mg individual PDX tumors (isolated from maintenance mice) at the flank area (left side for PDX14244, and right side for PDX27454) of SCID mice. […] The animal model of PDX tumors was orally treated weekly for 3 times as shown with black arrows.
as §3, with “for 4” for “for 3”, “times (one cycle/course,” for “times”, “black arrows).” for “black arrows.”
as §3, with “times in two doses due to drug limitation then (as” for “times as”, “black arrows).” for “black arrows.”

[7] = system: A2008; assay: MTT assay A2008; format: cell-based
Experimental: as §1, §2

[8] = system: FaDu; assay: MTT assay FaDu; format: cell-based; conditions: Table 5 lower part; FaDu head-and-neck cancer
Experimental: as §1, §2

[9] = system: HCT116 cells; assay: ROS production, DCFH-DA probe; format: cell-based, human; conditions: 5-100 nM vs vehicle control
Source text: Under the influence of pro-apoptotic signals, the elevation of reactive oxygen species (ROS) may serve as a secondary messenger to upregulate the expression of pro-apoptotic proteins, thereby inducing cellular apoptosis.

[10] = system: A549; assay: MTT assay A549; format: cell-based, human; conditions: Table 9
Experimental: MTT assays. […] Each experiment was performed at least in triplicate.

[11] = system: SW620 xenograft tumors; conditions: oral weekly for 1-2 times
Source text: Human xenograft tumors used. In this invention disclose, human SW620 (colorectal), HT29 (colorectal) and HT-3 (retinoblastoma) cancer cell line-established xenograft tumors were used. Human tumor cell line-derived xenograft tumors are initially established by subcutaneously injecting 2-5×10^6 cultured cancer cells in a volume of 100-150 p L medium into the flank area of severe combined immunodeficiency (SCID) mice. The derived tumors are then passed a couple of generations in mice by transplanting 30-50 mg non-necrotic tumor mass via a trocar for experiments or maintenance. […] PDX tumors were originally established on severe Combined Immunodeficiency (SCID) mice from pancreatic and colorectal cancer patient tumor tissues obtained from metastatic sites of the disease in the clinic.
Human SW620 xenograft tumors were initially established by subcutaneously injection of 2-5×10^6 SW620 cells in a volume of 100-150 μL medium. Mouse models of SW620 xenografts were set up by subcutaneously inoculating 30-40 mg tumor tissue (isolated from tumor maintenance SCID mice) on the flank of SCID mice. Treatment with individual compounds was initiated 7-14 days after the transplanted tumors reached 100-200 mm^3 (designated day 0). The treatment schedule is weekly for 1-2 times in a series of dose levels based on the available drug amounts then. The individual compounds were formulated in an organic solvent-free with HPβCD in 2% HPMC (hydroxypropyl methylcellulose) and 1% PG (propylene glycol) in saline (a thick aqueous suspension) for oral administration. The vehicle is the same thick aqueous suspension without drug.

[12] = system: UOK262
Experimental: as §1, §2

[13] = system: UOK151
Experimental: as §1, §2

[14] = system: A549; format: cell-based, human
[15] = system: HepG2; format: cell-based, human
[16] = system: HepG2, A549, HeLa, HCT116; conditions: four cell lines, in words
[17] = system: HeLa; format: cell-based, human
[18] = system: HCT116; format: cell-based, human
[19] = system: A2780CP70-GFPcODC cells; assay: GFPcODC drug-resistant cell tracking, A2780CP; format: cell-based, human; conditions: 10 μM, 72 h
Source text: (§4) Generation of A2780-GFPcODC, A2780CP-GFPcODC and PANC1GFPcODC cells and fluorescence microscopy to detect stem-like and drug resistant green cells. The retroviral expression vector pQCXIN-ZsGreen-cODC (ornithine decarboxylase), containing a green fluorescence marker, was kindly provided by Dr. Frank Pajonk (Vlashi E, et al., In vivo imaging, tracking, and targeting of cancer stem cells. J Natl Cancer Inst. 2009; 101: 350-9). The retroviral particles collected from packaging cells that transfected with the above vector were infected into A2780, A2780CP and PANC1 cells, respectively. The transfected cell pool was used for experiments. The transfected cells were treated with and without cisplatin or FL118 alone or in combination for defined times. Cell images were acquired digitally using the Olympus IX73 Inverted Score s (Olympus). Percentages of living cells were obtained from the average of the total cells counted from 10 microscopic fields.
To test this, we used a novel approach developed in Dr. Pajonk's lab for the live tracking of drug resistant cells (Vlashi E, et al., In vivo imaging, tracking, and targeting of cancer stem cells. J Natl Cancer Inst. 2009; 101: 350-9). This approach takes advantage of reduced 26S proteasome activity of drug resistant cells. […]

[20] = system: PANC1-GFPcODC cells; assay: Trypan blue exclusion, PANC1-GFPcODC cells; format: cell-based, human; conditions: 4-day treatment
Source text: as §4, with “The transfected cells were treated with and without cisplatin or FL118 alone or in combination for defined times.” left out
Next, we applied the same system to generate pancreatic cancer PANC1-GFPcODC cells.

[21] = Table 5 lower part, H1376 bladder cancer
[22] = Table 5 lower part, UMUC-3 bladder cancer
[23] = Table 5 lower part, A2008 ovarian cancer

Row | SMILES | IC50/EC50 [2, 21] [nM] | IC50/EC50 [3, 22] [nM] | IC50/EC50 [4] [nM] | IC50/EC50 [5] [nM] | IC50/EC50 [7, 23] [nM] | IC50/EC50 [8] [nM] | IC50/EC50 [10] [nM] | antitumor activity [11] | IC50/EC50 ([7]; Table 9, A2008) [nM] | other results
1 | CC[C@@]1(O)C(=O)OCc2c1cc1n(c2=O)Cc2c-1nc1cc3c(cc1c2-c1cc(OC)cc(OC)c1)OCO3 [7Q 24] | 246 | 0.21 | 1.44 | 0.08 | 1.95 | 0.68 | – | – | – | IC50/EC50 ([1]; HT-3): 3.59 nM; antitumor activity, 7Q-series (1) [6]: much higher antitumor activity than the other compounds in this 7Q-series (1)
2 | CC[C@@]1(O)C(=O)OCc2c1cc1n(c2=O)Cc2c-1nc1cc3c(cc1c2-c1ccc(F)c(OC)c1)OCO3 [Compound 7h] | – | – | – | – | – | – | – | – | – | ROS production [9]: significantly increased
3 | CC[C@@]1(O)C(=O)OCc2c1cc1n(c2=O)Cc2c-1nc1cc3c(cc1c2-c1cccnc1)OCO3 [W-b2] | – | – | – | – | – | – | 2.24 | much higher antitumor activity than the other compounds in this Wb-series | 4.6 | –
4 | CCc1ccc(-c2c3c(nc4cc5c(cc24)OCO5)-c2cc4c(c(=O)n2C3)COC(=O)[C@]4(O)CC)cc1 [7Q 6] | 386 | 0.4 | 1.51 | 0.19 | 1.34 | 0.85 | – | – | – | IC50/EC50 ([1]; HT-3): 3.11 nM; antitumor activity, 7Q-series (1) [6]: much higher antitumor activity than the other compounds in this 7Q-series (1)
5 | CC[C@@]1(O)C(=O)OCc2c1cc1n(c2=O)Cc2c-1nc1cc3c(cc1c2-c1ccoc1)OCO3 [W-b3] | – | – | – | – | – | – | 0.92 | much higher antitumor activity than the other compounds in this Wb-series | 16.15 | –
6 | CC[C@@]1(O)C(=O)OCc2c1cc1n(c2=O)Cc2cc3c(CN(C)C)c(O)ccc3nc2-1 [Topotecan, reference compound] | >500 | 52.8 | 96.4 | 37.2 | 46.1 | 26.63 | – | – | – | IC50/EC50 ([1]; HT-3 cervical carcinoma): 83.42 nM; IC50/EC50 ([12]; Table 5 lower part, UOK262 kidney cancer): >200 nM; IC50/EC50 ([12]; Table 8, UOK262): >200 nM; IC50/EC50 ([12]; Table 10, UOK262): >200 nM; IC50/EC50 ([2]; Table 8, H1376): >500 nM; IC50/EC50 ([13]; Table 5 lower part, UOK151 kidney cancer): >200 nM; IC50/EC50 ([13]; Table 8, UOK151): >200 nM; IC50/EC50 ([13]; Table 10, UOK151): >200 nM; IC50/EC50 ([3]; Table 8, UMUC-3): 52.8 nM
7 | CC[C@@]1(O)C(=O)OCc2c1cc1n(c2=O)Cc2c-1nc1cc3c(cc1c2-c1ccc(F)cc1)OCO3 [Compound 7b] | – | – | – | – | – | – | – | – | – | IC50 [14]: 19.8 ± 2.9 nM; IC50 [15]: 46.3 ± 5.4 nM; cytotoxic / anti-proliferation ability [16]: good anti-proliferation ability in all four cell lines; IC50 [17]: 11.1 ± 6.7 nM; IC50 [18]: 32.7 ± 3.3 nM
8 | CC[C@@]1(O)C(=O)OCc2c1cc1n(c2=O)Cc2c-1nc1cc3c(cc1c2-c1cccs1)OCO3 [W-b6] | – | – | – | – | – | – | 1.2 | much higher antitumor activity than the other compounds in this Wb-series | 11.1 | –
9 | N.N.[Cl][Pt][Cl] [cisplatin] | – | – | – | – | – | – | – | – | – | total cell population killed [19]: 90%; GFP-negative (drug sensitive) PANC1 cells killed ([20]; 50 μM): 92%; cell death ([20]; 20 μM cisplatin, 10 nM FL118, or both): ~18%
